# According to US20060178387A1, “Combined treatment with capecitabine and an epidermal growth factor receptor kinase inhibitor” (priority 2005, published 2006):
# How the values were obtained:
# [1] = Tolerability (body weight, deaths, MTD) in tumor-bearing mice; format: in vivo, BALB/c nu/nu mice; conditions: for lethality: erlotinib 250 mg/kg/day; for toxic deaths: erlotinib 50-125 mg/kg/day for 2 weeks
# Text: Male and female, 4-6-weeks old BALB/c nu/nu mice were obtained from Nippon Clea (Tokyo, Japan). All animals were allowed to acclimatize and recover from shipping-related stress for 1 week prior to the study. The health of the mice was monitored daily by observation.
# [2] = test system: A-431 (human vulval epidermal cancer) cells; assay: Tumor-growth inhibition in vivo, A-431 xenograft in BALB/c nu/nu mice; conditions: erlotinib 100 mg/kg/day (80% of MTD) orally once daily for 14 days
# Text: (§1) Suspensions of LoVo (5×10^6 cells/mouse), HT-29 (5 x 10^6 cells/mouse) and A431 (8×10^6 cells/mouse) cells were inoculated s.c. into the right flank of the mice. A piece of MAXF401 was transplanted s.c. into the right flank of female mice. A suspension of KPL-4 cells (1×10^7 cells/mouse) was orthotopically transplanted into the second mammary fat pad of female mice. Several weeks after tumor inoculation, mice were selected and randomized into control and treatment groups. Experiments were started when tumor volumes reached approximately 0.1-0.3 cm^3. […] The tumor volumes were estimated using the equation V=ab^2/2, where a and b are tumor length and width, respectively. Gastrointestinal (GI) toxicity was estimated by observing the feces and by detecting fecal occult blood using a test kit (Shionogi Pharma Co., Osaka, Japan). Peripheral blood leukocyte counts were performed to evaluate bone marrow toxicity.
# [3] = test system: HT-29 (human colon cancer) cells; assay: Tumor-growth inhibition in vivo, HT-29 xenograft in BALB/c nu/nu mice; conditions: erlotinib 100 mg/kg/day orally once daily for two weeks, day 15
# Text: as §1
# [4] = test system: MAXF401 (human breast cancer) cells; assay: Tumor-growth inhibition in vivo, MAXF401 xenograft in BALB/c nu/nu mice; conditions: erlotinib 100 mg/kg/day orally once daily for two weeks, day 15
# Text: as §1
# [5] = test system: KPL-4 (human inflammatory breast cancer) cells; assay: Tumor-growth inhibition in vivo, KPL-4 orthotopic xenograft in BALB/c nu/nu mice
# Text: as §1
# [6] = test system: LoVo (human colon cancer) cells; assay: Tumor-growth inhibition in vivo, LoVo xenograft in BALB/c nu/nu mice; conditions: for tumor inhibition rate: day 15, after 14 days' treatment; for tumor-growth inhibition: LoVo
# Text: as §1
# [7] = erlotinib 100 mg/kg/day (80% of MTD) orally once daily for 14 days, day 15
# [8] = erlotinib 100 mg/kg/day (80% of MTD) orally once daily for 14 days, day 15, listed as erlotinib
SMILES,"MTD at 2 weeks ([1]; BALB/c nu/nu, mouse, in vivo, oral, read-out: maximum tolerated dose (MTD))",lethality ([1]; mice bearing A431 tumors (data not shown)),lethality ([1]; mice bearing LoVo tumors (data not shown)),toxic deaths ([1]; mice bearing LoVo tumors),"toxic deaths ([1]; mice bearing LoVo tumors, listed as erlotinib)","mean body weight maintained ([1]; mice bearing LoVo tumors, erlotinib 50-125 mg/kg/day, all groups)",tumor-growth inhibition ([2]; day 15),"tumor-growth inhibition ([2]; day 15, listed as erlotinib)",tumor-growth inhibition [3],tumor-growth inhibition [4],"tumor-growth inhibition [5, 7]","tumor-growth inhibition [5, 8]",inhibition of tumor growth ([5]; single-agent erlotinib 75 mg/kg (data not shown)),"antitumor activity ([6]; LoVo dose-response study, erlotinib 50 mg/kg orally once daily for 2 weeks)","tumor inhibition rate ([6]; LoVo dose-response study, erlotinib 100 mg/kg orally once daily)","tumor inhibition rate ([6]; LoVo dose-response study, erlotinib 125 mg/kg orally once daily)","tumor-growth inhibition [6, 7]","tumor-growth inhibition [6, 8]","tumor-growth inhibition ([5]; capecitabine 90 mg/kg (67% of MTD for this model) orally once daily for 14 days, day 15)","tumor-growth inhibition ([6]; capecitabine at the MTD, 539 mg/kg)"
"C#Cc1cccc(Nc2ncnc3cc(OCCOC)c(OCCOC)cc23)c1 [Erlotinib, [6,7-bis(2-methoxyethoxy)-4-quinazolin-4-yl]-(3-ethynylphenyl)amine]",125 mg/kg/day,lethal,lethal,no deaths recorded,No toxic deaths were observed,≥ 80%,85%,85%,46%,20%,71%,71%,45%,did not show significant antitumor activity,62%,85%,74%,74%,,
"CCCCCOC(=O)Nc1nc(=O)n([C@@H]2O[C@H](C)[C@@H](O)[C@H]2O)cc1F [Capecitabine, capecitabine]",,,,,,,,,,,,,,,,,,,36%,56%
